# In ChEMBL document CHEMBL4196087 (Eur J Med Chem, 2018):
# Tests used:
# IGROV-1 = experiment: Growth inhibition of human IGROV1 cells at 10^-5 M incubated for 48 hrs by sulforhodamine B assay relative to control; type: functional; conditions: IGROV-1, 48 h, read-out: GI
# T47D = experiment: Growth inhibition of human T47D cells at 10^-5 M incubated for 48 hrs by sulforhodamine B assay relative to control; type: functional; conditions: read-out: GI
# LOX IMVI = experiment: Growth inhibition of human LOXIMVI cells at 10^-5 M incubated for 48 hrs by sulforhodamine B assay relative to control; type: functional; conditions: read-out: GI
# MDA-MB-231 = experiment: Growth inhibition of human MDA-MB-231 cells at 10^-5 M incubated for 48 hrs by sulforhodamine B assay relative to control; type: functional; conditions: MDA-MB-231, 48 h, read-out: GI
# Pseudomonas aeruginosa = experiment: Antibacterial activity against Pseudomonas aeruginosa at 37 degC measured after 24 hrs by agar disc diffusion method; type: functional
# SNB-75 = experiment: Growth inhibition of human SNB75 cells at 10^-5 M incubated for 48 hrs by sulforhodamine B assay relative to control; type: functional; conditions: SNB-75, 48 h, read-out: GI
# UO-31 [1] = experiment: Antiproliferative activity against human UO31 cells after 48 hrs by SRB assay; type: functional; conditions: UO-31, 48 h
# UO-31 [2] = experiment: Growth inhibition of human UO31 cells at 10^-5 M incubated for 48 hrs by sulforhodamine B assay relative to control; type: functional; conditions: UO-31, 48 h, read-out: GI
# SF-539 = experiment: Growth inhibition of human SF539 cells at 10^-5 M incubated for 48 hrs by sulforhodamine B assay relative to control; type: functional; conditions: SF-539, 48 h, read-out: GI
# MOLT-4 = experiment: Growth inhibition of human MOLT4 cells at 10^-5 M incubated for 48 hrs by sulforhodamine B assay relative to control; type: functional; conditions: MOLT-4, 48 h, read-out: GI
# HOP-62 = experiment: Growth inhibition of human HOP62 cells at 10^-5 M incubated for 48 hrs by sulforhodamine B assay relative to control; type: functional; conditions: HOP-62, 48 h, read-out: GI
# A498 = experiment: Growth inhibition of human A498 cells at 10^-5 M incubated for 48 hrs by sulforhodamine B assay relative to control; type: functional; conditions: A498, 48 h, read-out: GI
# HOP-92 = experiment: Growth inhibition of human HOP92 cells at 10^-5 M incubated for 48 hrs by sulforhodamine B assay relative to control; type: functional; conditions: HOP-92, 48 h, read-out: GI
# K562 = experiment: Growth inhibition of human K562 cells at 10^-5 M incubated for 48 hrs by sulforhodamine B assay relative to control; type: functional; conditions: K562, 48 h, read-out: GI
# PC-3 = experiment: Growth inhibition of human PC3 cells at 10^-5 M incubated for 48 hrs by sulforhodamine B assay relative to control; type: functional; conditions: PC-3, 48 h, read-out: GI
# UO-31 [3] = experiment: Antiproliferative activity against human UO31 cells after 48 hrs by MTT assay; type: functional, cell-based; conditions: UO-31, 48 h
# CCRF-CEM = experiment: Growth inhibition of human CCRF-CEM cells at 10^-5 M incubated for 48 hrs by sulforhodamine B assay relative to control; type: functional; conditions: read-out: GI
# Staphylococcus aureus = experiment: Antibacterial activity against Staphylococcus aureus at 37 degC measured after 24 hrs by agar disc diffusion method; type: functional
# MDA-MB-468 [4] = experiment: Growth inhibition of human MDA-MB-468 cells at 10^-5 M incubated for 48 hrs by sulforhodamine B assay relative to control; type: functional; conditions: MDA-MB-468, 48 h, read-out: GI
# UO-31 [5] = experiment: Potency index, ratio of doxorubicin IC50 to compound IC50 for antiproliferative activity against human UO31 cells; type: functional
# HL-60(TB) = experiment: Growth inhibition of human HL-60(TB) cells at 10^-5 M incubated for 48 hrs by sulforhodamine B assay relative to control; type: functional; conditions: HL-60, 48 h, read-out: GI
# Bacillus subtilis = experiment: Antibacterial activity against Bacillus subtilis at 37 degC measured after 24 hrs by agar disc diffusion method; type: functional
# MDA-MB-468 [6] = experiment: Antiproliferative activity against human MDA-MB-468 cells after 48 hrs by MTT assay; type: functional, cell-based; conditions: MDA-MB-468, 48 h
# SK-MEL-5 = experiment: Growth inhibition of human SK-MEL-5 cells at 10^-5 M incubated for 48 hrs by sulforhodamine B assay relative to control; type: functional; conditions: SK-MEL-5, 48 h, read-out: GI
# MCF7 = experiment: Growth inhibition of human MCF7 cells at 10^-5 M incubated for 48 hrs by sulforhodamine B assay relative to control; type: functional; conditions: MCF7, 48 h, read-out: GI
# RPMI-8226 = experiment: Growth inhibition of human RPMI8226 cells at 10^-5 M incubated for 48 hrs by sulforhodamine B assay relative to control; type: functional; conditions: RPMI-8226, 48 h, read-out: GI
# NCI-H226 = experiment: Growth inhibition of human NCI-H226 cells at 10^-5 M incubated for 48 hrs by sulforhodamine B assay relative to control; type: functional; conditions: NCI-H226, 48 h, read-out: GI
# MDA-MB-468 [7] = experiment: Potency index, ratio of doxorubicin IC50 to compound IC50 for antiproliferative activity against human MDA-MB-468 cells; type: functional
# Escherichia coli = experiment: Antibacterial activity against Escherichia coli at 37 degC measured after 24 hrs by agar disc diffusion method; type: functional
# MDA-MB-468 [8] = experiment: Antiproliferative activity against human MDA-MB-468 cells after 48 hrs by SRB assay; type: functional; conditions: MDA-MB-468, 48 h, read-out: LC50 (the source's name)
# DNA topoisomerase 2-beta [9] = biological target: T1, DNA topoisomerase 2-beta (Homo sapiens, UniProt Q02880); experiment: Inhibition of human topoisomerase-2B after 2 hrs by ELISA
# UO-31 [10] = experiment: Cell cycle arrest in human UO31 cells assessed as accumulation at S phase at 0.75 uM after 24 hrs by propidium iodide staining based flow cytometry (reference value: 24.47%); type: functional
# UO-31 [11] = experiment: Cell cycle arrest in human UO31 cells assessed as accumulation at G1 phase at 0.75 uM after 24 hrs by propidium iodide staining based flow cytometry (reference value: 69.55%); type: functional
# UO-31 [12] = experiment: Induction of apoptosis in human UO31 cells assessed as necrotic cells at 0.75 uM after 24 hrs by Annexin V-FITC/propidium iodide staining based flow cytometry (reference value: 0.08%); type: functional
# UO-31 [13] = experiment: Cell cycle arrest in human UO31 cells assessed as accumulation at G2 phase at 0.75 uM after 24 hrs by propidium iodide staining based flow cytometry (reference value: 5.49%); type: functional
# UO-31 [14] = experiment: Cell cycle arrest in human UO31 cells assessed as apoptotic cells at 0.75 uM after 24 hrs by propidium iodide staining based flow cytometry (reference value: 0.49%); type: functional
# UO-31 [15] = experiment: Cell cycle arrest in human UO31 cells assessed as accumulation at pre-G1 phase at 0.75 uM after 24 hrs by propidium iodide staining based flow cytometry relative to control; type: functional
# DNA topoisomerase 2-beta [16] = biological target: T1, DNA topoisomerase 2-beta; experiment: Potency index, ratio of doxorubicin IC50 to compound IC50 for inhibition of human topoisomerase-2B
# UO-31 [17] = experiment: Induction of apoptosis in human UO31 cells assessed as live cells at 0.75 uM after 24 hrs by Annexin V-FITC/propidium iodide staining based low cytometry (reference value: 97.84%); type: functional
# DNA topoisomerase 2-beta [18] = biological target: T1, DNA topoisomerase 2-beta; experiment: Potency index, ratio of amsacrine IC50 to compound IC50 for inhibition of human topoisomerase-2B
# UO-31 [19] = experiment: Induction of apoptosis in human UO31 cells assessed as early apoptotic cells at 0.75 uM after 24 hrs by Annexin V-FITC/propidium iodide staining based flow cytometry (reference value: 0.19%); type: functional
# UO-31 [20] = experiment: Induction of apoptosis in human UO31 cells assessed as late apoptotic cells at 0.75 uM after 24 hrs by Annexin V-FITC/propidium iodide staining based flow cytometry (reference value: 0.22%); type: functional
# UO-31 [21] = experiment: Induction of apoptosis in human UO31 cells assessed as caspase-3 activation by measuring active caspase-3 level at 0.75 uM by […] (reference value: 66 pg/ml); type: functional
# DNA topoisomerase 2-beta [22] = biological target: T1, DNA topoisomerase 2-beta; experiment: Potency index, ratio of etoposide IC50 to compound IC50 for inhibition of human topoisomerase-2B
# UO-31 [23] = experiment: Cell cycle arrest in human UO31 cells assessed as accumulation at G2/M phase at 0.75 uM after 24 hrs by propidium iodide staining based flow cytometry relative to control; type: functional
# T1 sequence (Q02880 whole entry): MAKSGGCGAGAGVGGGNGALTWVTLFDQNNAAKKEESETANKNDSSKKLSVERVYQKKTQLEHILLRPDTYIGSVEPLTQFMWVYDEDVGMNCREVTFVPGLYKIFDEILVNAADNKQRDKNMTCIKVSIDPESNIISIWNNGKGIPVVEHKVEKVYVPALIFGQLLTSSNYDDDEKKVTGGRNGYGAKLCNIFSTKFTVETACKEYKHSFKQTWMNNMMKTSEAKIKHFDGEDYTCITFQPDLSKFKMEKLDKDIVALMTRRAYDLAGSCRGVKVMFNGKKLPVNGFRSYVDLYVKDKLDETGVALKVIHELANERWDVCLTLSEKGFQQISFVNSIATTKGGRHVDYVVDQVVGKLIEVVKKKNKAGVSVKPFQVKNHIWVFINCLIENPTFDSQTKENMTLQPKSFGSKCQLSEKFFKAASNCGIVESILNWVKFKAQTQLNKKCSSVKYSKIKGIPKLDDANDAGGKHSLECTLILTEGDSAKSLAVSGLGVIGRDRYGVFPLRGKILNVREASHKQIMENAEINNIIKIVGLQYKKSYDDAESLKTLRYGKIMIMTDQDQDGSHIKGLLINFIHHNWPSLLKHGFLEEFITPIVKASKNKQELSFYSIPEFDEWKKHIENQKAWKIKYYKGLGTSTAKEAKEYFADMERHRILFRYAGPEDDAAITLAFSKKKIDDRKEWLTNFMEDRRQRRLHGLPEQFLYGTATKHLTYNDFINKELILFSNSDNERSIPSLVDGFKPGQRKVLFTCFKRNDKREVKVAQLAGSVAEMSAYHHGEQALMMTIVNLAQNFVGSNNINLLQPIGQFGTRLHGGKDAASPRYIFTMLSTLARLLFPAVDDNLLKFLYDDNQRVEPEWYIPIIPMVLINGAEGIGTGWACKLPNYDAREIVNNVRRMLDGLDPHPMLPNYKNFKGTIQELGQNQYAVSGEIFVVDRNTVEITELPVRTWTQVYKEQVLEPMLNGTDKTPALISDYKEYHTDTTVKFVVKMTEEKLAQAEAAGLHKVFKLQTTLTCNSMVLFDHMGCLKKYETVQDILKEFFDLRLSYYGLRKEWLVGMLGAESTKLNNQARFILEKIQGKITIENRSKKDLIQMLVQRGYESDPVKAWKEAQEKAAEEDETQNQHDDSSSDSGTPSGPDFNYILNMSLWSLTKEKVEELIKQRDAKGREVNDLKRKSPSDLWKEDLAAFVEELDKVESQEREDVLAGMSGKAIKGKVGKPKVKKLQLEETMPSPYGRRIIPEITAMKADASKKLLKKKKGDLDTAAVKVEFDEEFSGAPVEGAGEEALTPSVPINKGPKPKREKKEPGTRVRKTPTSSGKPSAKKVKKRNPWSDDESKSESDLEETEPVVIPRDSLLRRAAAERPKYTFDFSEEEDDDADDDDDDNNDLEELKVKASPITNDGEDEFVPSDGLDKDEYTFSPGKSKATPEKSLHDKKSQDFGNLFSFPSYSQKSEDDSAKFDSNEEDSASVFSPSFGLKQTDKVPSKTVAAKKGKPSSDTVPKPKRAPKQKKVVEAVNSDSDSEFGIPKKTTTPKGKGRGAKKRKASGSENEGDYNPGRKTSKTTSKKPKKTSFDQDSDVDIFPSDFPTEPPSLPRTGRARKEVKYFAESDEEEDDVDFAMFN
smiles,measurement,setting,value
O=C(CN1CCN(c2cc3c(cc2F)c(=O)c(C(=O)O)cn3C2CC2)CC1)N/N=C/c1ccccc1C(F)(F)F,inhibition of growth at 10 µM,IGROV-1,33.4%
same,inhibition of growth at 10 µM,T47D,25.1%
same,inhibition of growth at 10 µM,LOX IMVI,32.3%
same,inhibition of growth at 10 µM,MDA-MB-231,23.6%
same,diameter of the inhibition zone (DIZ),Pseudomonas aeruginosa,25 mm
same,inhibition of growth at 10 µM,SNB-75,29.9%
same,LC50,UO-31 [1],15.9 µM
same,inhibition of growth at 10 µM,UO-31 [2],37.4%
same,inhibition of growth at 10 µM,SF-539,22.5%
same,inhibition of growth at 10 µM,MOLT-4,27.3%
same,inhibition of growth at 10 µM,HOP-62,< 20%
same,inhibition of growth at 10 µM,A498,20.7%
same,inhibition of growth at 10 µM,HOP-92,35.9%
same,inhibition of growth at 10 µM,K562,21.2%
same,inhibition of growth at 10 µM,PC-3,24.9%
same,IC50,UO-31 [3],4.92 µM
same,inhibition of growth at 10 µM,CCRF-CEM,< 20%
same,diameter of the inhibition zone (DIZ),Staphylococcus aureus,25 mm
same,inhibition of growth at 10 µM,MDA-MB-468 [4],34.7%
same,Ratio IC50,UO-31 [5],1.5 - 9
same,inhibition of growth at 10 µM,HL-60(TB),< 20%
same,diameter of the inhibition zone (DIZ),Bacillus subtilis,28 mm
same,IC50,MDA-MB-468 [6],2.16 µM
same,inhibition of growth at 10 µM,SK-MEL-5,22.1%
same,inhibition of growth at 10 µM,MCF7,< 20%
same,inhibition of growth at 10 µM,RPMI-8226,25%
same,inhibition of growth at 10 µM,NCI-H226,< 20%
same,Ratio IC50,MDA-MB-468 [7],1.3
same,diameter of the inhibition zone (DIZ),Escherichia coli,26 mm
same,CC50,MDA-MB-468 [8],15.6 µM
O=C(CN1CCN(c2cc3c(cc2F)c(=O)c(C(=O)O)cn3C2CC2)CC1)N/N=C/c1ccc(O)cc1O,diameter of the inhibition zone (DIZ),Pseudomonas aeruginosa,23 mm
same,LC50,UO-31 [1],13 µM
same,IC50,UO-31 [3],3.19 µM
same,diameter of the inhibition zone (DIZ),Staphylococcus aureus,21 mm
same,Ratio IC50,UO-31 [5],1.5 - 9
same,diameter of the inhibition zone (DIZ),Bacillus subtilis,24 mm
same,diameter of the inhibition zone (DIZ),Escherichia coli,20 mm
O=C(CN1CCN(c2cc3c(cc2F)c(=O)c(C(=O)O)cn3C2CC2)CC1)N/N=C/c1ccccc1O,IC50,DNA topoisomerase 2-beta [9],0.58 µM
same,Activity,UO-31 [10],22.02%
same,Activity,UO-31 [11],59.87%
same,Activity,UO-31 [12],0.87%
same,Activity,UO-31 [13],11.28%
same,Activity,UO-31 [14],6.83%
same,diameter of the inhibition zone (DIZ),Pseudomonas aeruginosa,17 mm
same,LC50,UO-31 [1],15.2 µM
same,fold change (FC),UO-31 [15],13.9
same,Ratio IC50,DNA topoisomerase 2-beta [16],6
same,IC50,UO-31 [3],0.75 µM
same,diameter of the inhibition zone (DIZ),Staphylococcus aureus,15 mm
same,Ratio IC50,UO-31 [5],1.5 - 9
same,Activity,UO-31 [17],91.8%
same,diameter of the inhibition zone (DIZ),Bacillus subtilis,18 mm
same,Ratio IC50,DNA topoisomerase 2-beta [18],5
same,Activity,UO-31 [19],2.64%
same,Activity,UO-31 [20],3.32%
same,Activity,UO-31 [21],346.4 pg/mL
same,Ratio IC50,DNA topoisomerase 2-beta [22],1.5
same,diameter of the inhibition zone (DIZ),Escherichia coli,16 mm
same,fold change (FC),UO-31 [23],2.05
